Values of other authors, collected in patent US20120263775A1, “PRODUCTION OF PESTICIDE GRANULATES IN A SPOUTED BED APPARATUS” (priority 2009, published 2012).
Converted amounts (≈) assume the structure as drawn.

Compound: COC(=O)N(OC)c1ccccc1COc1ccn(-c2ccc(Cl)cc2)n1 [Pyraclostrobin, pyraclostrobin]
- solubility in water: 2 µg/mL (≈ 5.16 µM)
